Where two headings read alike, the source gives them in different places. Values belong to the compound of their own block, whether it stands above or below them. Residues, ends and D or L forms follow the SMILES beside them.
Assays:
[1] = test system: His-Tag purified peptide-forming enzyme of Corynebacterium glutamicum strain ATCC 13286; assay: Study of substrate specificity using His-Tag purified enzyme; assay type: biochemical; details: 25° C.; for quantity of dipeptide produced from test amino acid methyl ester and L-glutamine / production of peptide of the corresponding amino acid and L-glutamine (not quantified): 100 mM test amino acid methyl ester, 150 mM L-glutamine; for quantity of dipeptide produced from test amino acid methyl ester and L-glutamine / quantity of L-alanyl dipeptide produced from L-alanine methyl ester and test amino acid: enzyme 0.05 U/ml, pH 9.0, 3 hours; for quantity of L-alanyl dipeptide produced from L-alanine methyl ester and test amino acid: 100 mM L-alanine methyl ester hydrochloride, 150 mM test amino acid; for production of peptide of the corresponding amino acid and L-glutamine (not quantified): 3 hours, no standard preparation
Source text: The synthesis of peptides other than the L-alanyl-L-glutamine by the acquired peptide-forming enzyme was studied using His-Tag purified enzyme. […]

[2] = test system: Pseudomonas putida strain FERM BP-8101; assay: Dipeptide production from test L-alanine esters / L-amino acids by cell suspension; assay type: cell-based; details: 20 mM EDTA, pH 9.0, 1 hour, 30° C.; for L-alanyl dipeptide produced: L-alanine methyl ester hydrochloride 200 mM with test L-amino acid 400 mM; for L-alanyl-L-glutamine produced: test L-alanine ester hydrochloride 200 mM with L-glutamine 400 mM
Protocol: Note that in the examples, quantitative determination of L-alanine, L-alanyl-L-glutamine or L-alanyl-L-asparagine was carried out by a method using high performance liquid chromatography (column: Inertsil ODS-2 (GL Science), eluate: aqueous phosphate solution (pH 2.2, 5.0 mM sodium 1-octane sulfonate/methanol=100/15), flow rate: 1.0 mL/min, detection: 210 nm).

[3] = test system: peptide-forming enzyme purified from Corynebacterium glutamicum strain ATCC 13286; assay: Dipeptide production by enzyme purified from Corynebacterium glutamicum; assay type: biochemical; details: 100 mM L-alanine methyl ester hydrochloride with 200 mM test L-amino acid, 2 units enzyme, 10 mM EDTA, pH 9.0, 4 hours, 30° C.
Protocol: This purified enzyme was then added to borate buffer (pH 9.0) containing EDTA, L-alanine methyl ester hydrochloride and L-glutamine (or L-asparagine), mixed to the total volume of 1 mL (for the final concentrations, the amount of enzyme added was 2 units as alanine amide decomposition activity, EDTA was at 10 mM, L-alanine methyl ester hydrochloride was at 100 mM and L-glutamine (or L-asparagine) was at 200 mM borate buffer at 100 mM), and allowed to react for 4 hours at 30° C.

[4] = Enzyme titer: L-alanine amide decomposition activity; assay type: biochemical; details: Tris-HCl pH 9.0, 60 minutes, 30° C.
Protocol: The specific activity of the purified enzyme was 9.841 U/mg, and the specific activity of the purified peptide-forming enzyme was increased about 246-fold as a result of going through these purification steps. In addition, as a result of applying the molecular weight of the purified enzyme standard to SDS polyacrylamide electrophoresis, a uniform band was detected at the position calculated to represent a molecular weight of 42,000 to 46,000. Measurement of enzyme titer was carried out as described below. 200 μM of Tris-HCl buffer (pH 9.0), 50 μM of L-alanine amide and a suitable amount of enzyme liquid were added and mixed to a final volume 1 mL, and after allowing to react for 60 minutes at 30° C., 4 mL of aqueous phosphoric acid (pH 2.1) was added to stop the reaction. The alanine produced was quantified by high-performance liquid chromatography, and the amount of enzyme that produces 1 μM of L-alanine in 1 minute was defined as 1 unit.

[5] = test system: Pseudomonas putida strain FERM BP-8101; details: substrate solution with 20 mM EDTA, 200 mM L-alanine ethyl ester hydrochloride, 400 mM L-glutamine, pH 9.0, 1 hour, 30° C.; 4.9 mM with no EDTA
Source text: However, the present invention is not limited to these examples.

[6] = biological target: proline iminopeptidase of Bacillus coagulans strain EK01 (Heyndrickxia coagulans, UniProt P46541); assay: Effect of inhibitors on L-alanyl-L-glutamine synthesis; assay type: biochemical; details: 1 mM inhibitor, 30 minutes, 30° C.
Sequence of proline iminopeptidase of Bacillus coagulans strain EK01 (P46541 whole entry): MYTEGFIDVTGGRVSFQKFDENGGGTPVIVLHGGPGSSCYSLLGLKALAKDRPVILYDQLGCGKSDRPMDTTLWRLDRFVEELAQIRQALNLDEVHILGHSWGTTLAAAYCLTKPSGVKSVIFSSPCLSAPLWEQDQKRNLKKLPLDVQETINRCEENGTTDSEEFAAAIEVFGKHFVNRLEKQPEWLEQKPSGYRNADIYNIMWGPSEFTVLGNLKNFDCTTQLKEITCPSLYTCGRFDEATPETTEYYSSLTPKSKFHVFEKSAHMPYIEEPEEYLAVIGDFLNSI

[7] = test system: proline iminopeptidase of Pseudomonas putida strain ATCC 12633; assay: as above; assay type: biochemical; details: 1 mM inhibitor, 30 minutes, 30° C.
Protocol: The effects of inhibitors on acquired proline iminopeptidase were investigated. The enzyme reaction was carried out for 30 minutes at 30° C. with a reaction solution consisting of 0.1 M borate buffer (pH 9.0), 10 mM EDTA, 100 mM L-alanine methyl ester hydrochloride, 150 mM L-glutamine and 1 mM inhibitor, followed by measurement of L-alanyl-L-glutamine synthesis. […] The activity was not affected by any of the inhibitors investigated for Corynebacterium glutamicum strain ATCC 13286.

[8] = test system: proline iminopeptidase of Pseudomonas putida strain FERM BP-8123; assay: as above; assay type: biochemical; details: 1 mM inhibitor, 30 minutes, 30° C.

quantity of dipeptide produced from test amino acid methyl ester and L-glutamine [1]: 4.31 mM
Compound: COC(=O)[C@@H](N)CCSC [L-methionine methyl ester]

quantity of dipeptide produced from test amino acid methyl ester and L-glutamine [1]: 8.22 mM
Compound: COC(=O)[C@@H](N)CC(=O)O [L-aspartic acid-α-methyl ester]

amount of L-alanyl dipeptide produced [3]: 50.2 mM
Compound: NC(=O)CC[C@H](N)C(=O)O [L-glutamine]
L-alanyl dipeptide produced [2]: 12.7 mM

quantity of dipeptide produced from test amino acid methyl ester and L-glutamine [1]: 0.59 mM
Compound: CC[C@H](C)[C@H](N)C(=O)N[C@@H](CCC(N)=O)C(=O)O [L-isoleucyl-L-glutamine] (H-Ile-Gln-OH)

Compound: N[C@@H](Cc1c[nH]c2ccccc12)C(=O)O [L-tryptophan]
quantity of L-alanyl dipeptide produced from L-alanine methyl ester and test amino acid [1]: 15.31 mM

quantity of L-alanyl dipeptide produced from L-alanine methyl ester and test amino acid [1]: 26.14 mM
Compound: N[C@@H](CO)C(=O)O [L-serine]

quantity of L-alanyl dipeptide produced from L-alanine methyl ester and test amino acid [1]: 16.13 mM
Compound: N[C@@H](Cc1ccccc1)C(=O)O [L-phenylalanine]

production of peptide of the corresponding amino acid and L-glutamine (not quantified) [1]: confirmed to be produced
Compound: COC(=O)C[C@H](N)C(=O)O [L-aspartic acid-β-methyl ester]

Compound: peptide-forming enzyme purified from Corynebacterium glutamicum strain ATCC 13286: native enzyme purified to uniformity; amino acid sequence SEQ ID NO: 5
specific activity (L-alanine amide decomposition) [4]: 9.841 U/mg

Compound: O=C(O)CN(CCN(CC(=O)O)CC(=O)O)CC(=O)O [EDTA, ethylenediaminetetraacetic acid]
L-alanyl-L-glutamine produced [5]: 10.1 mM

quantity of dipeptide produced from test amino acid methyl ester and L-glutamine [1]: 3.85 mM
Compound: COC(=O)[C@@H](N)[C@@H](C)O [L-threonine methyl ester]

Compound: C[C@H](N)C(=O)OC(C)(C)C.Cl [L-alanine-tert-butyl ester hydrochloride]
L-alanyl-L-glutamine produced [2]: 0.5 mM

Compound: CCN1C(=O)C=CC1=O [NEM, N-ethylmaleimide]
effect on enzyme activity [6]: nearly completely inhibited | effect on enzyme activity [7]: nearly completely inhibited | effect on enzyme activity [8]: nearly completely inhibited

production of peptide of the corresponding amino acid and L-glutamine (not quantified) [1]: confirmed to be produced
Compound: COC(=O)[C@@H](N)CCCCN [L-lysine methyl ester]

quantity of dipeptide produced from test amino acid methyl ester and L-glutamine [1]: 1.24 mM
Compound: COC(=O)[C@@H](N)Cc1ccc(O)cc1 [L-tyrosine methyl ester]

quantity of L-alanyl dipeptide produced from L-alanine methyl ester and test amino acid [1]: 10.63 mM
Compound: C[C@H](N)C(=O)O [L-alanine]

quantity of L-alanyl dipeptide produced from L-alanine methyl ester and test amino acid [1]: 23.16 mM
Compound: N[C@@H](Cc1c[nH]cn1)C(=O)O [L-histidine]

Compound: NCCCC[C@H](N)C(=O)O [L-lysine]
quantity of L-alanyl dipeptide produced from L-alanine methyl ester and test amino acid [1]: 7.91 mM

production of peptide of the corresponding amino acid and L-glutamine (not quantified) [1]: confirmed to be produced
Compound: COC(=O)[C@@H](N)CC(C)C [L-leucine methyl ester]

quantity of dipeptide produced from test amino acid methyl ester and L-glutamine [1]: 52.19 mM
Compound: COC(=O)CN [glycine methyl ester]

production of peptide of the corresponding amino acid and L-glutamine (not quantified) [1]: confirmed to be produced
Compound: COC(=O)C[C@H](N)C(=O)OC [L-aspartic acid-α,β-dimethyl ester]

quantity of dipeptide produced from test amino acid methyl ester and L-glutamine [1]: 40.44 mM
Compound: COC(=O)[C@@H](N)CO [L-serine methyl ester]

quantity of dipeptide produced from test amino acid methyl ester and L-glutamine [1]: 6.52 mM
Compound: COC(=O)[C@@H](N)CCCNC(=N)N [L-arginine methyl ester]

quantity of L-alanyl dipeptide produced from L-alanine methyl ester and test amino acid [1]: 5.66 mM
Compound: NCC(=O)O [glycine]

quantity of L-alanyl dipeptide produced from L-alanine methyl ester and test amino acid [1]: 24.23 mM
Compound: C[C@@H](O)[C@H](N)C(=O)O [L-threonine]

Compound: O=S(=O)(F)Cc1ccccc1 [PMSF, phenyl methyl sulfonyl fluoride]
effect on enzyme activity [6]: did not have an effect | effect on enzyme activity [7]: did not have an effect | effect on enzyme activity [8]: did not have an effect

quantity of L-alanyl dipeptide produced from L-alanine methyl ester and test amino acid [1]: 1.11 mM
Compound: N[C@@H](CCC(=O)O)C(=O)O [L-glutamate]

quantity of dipeptide produced from test amino acid methyl ester and L-glutamine [1]: 0.23 mM
Compound: COC(=O)[C@@H](N)CCC(N)=O [L-glutamine methyl ester]

Compound: N=C(N)NCCC[C@H](N)C(=O)O [L-arginine]
quantity of L-alanyl dipeptide produced from L-alanine methyl ester and test amino acid [1]: 24.87 mM

production of peptide of the corresponding amino acid and L-glutamine (not quantified) [1]: confirmed to be produced
Compound: COC(=O)[C@@H](N)CC(N)=O [L-asparagine methyl ester]

Compound: CCOC(=O)[C@H](C)N.Cl [L-alanine ethyl ester hydrochloride]
L-alanyl-L-glutamine produced [2]: 11.4 mM

Compound: COC(=O)[C@H](C)N.Cl [L-alanine methyl ester hydrochloride]
L-alanyl-L-glutamine produced [2]: 14.9 mM

amount of L-alanyl dipeptide produced [3]: 49.8 mM | quantity of L-alanyl dipeptide produced from L-alanine methyl ester and test amino acid [1]: 22.34 mM
Compound: NC(=O)C[C@H](N)C(=O)O [L-asparagine]
L-alanyl dipeptide produced [2]: 4.8 mM

quantity of L-alanyl dipeptide produced from L-alanine methyl ester and test amino acid [1]: 48.80 mM
Compound: CSCC[C@H](N)C(=O)O [L-methionine]

quantity of L-alanyl dipeptide produced from L-alanine methyl ester and test amino acid [1]: 0.96 mM
Compound: N[C@@H](Cc1ccc(O)cc1)C(=O)O [L-tyrosine]

quantity of dipeptide produced from test amino acid methyl ester and L-glutamine [1]: 5.94 mM
Compound: COC(=O)[C@@H](N)C(C)C [L-valine methyl ester]

quantity of L-alanyl dipeptide produced from L-alanine methyl ester and test amino acid [1]: 13.73 mM
Compound: CC(C)C[C@H](N)C(=O)O [L-leucine]

production of peptide of the corresponding amino acid and L-glutamine (not quantified) [1]: confirmed to be produced
Compound: COC(=O)CC[C@H](N)C(=O)O [L-glutamic acid-γ-methyl ester]

Compound: NC(=O)CI [IAA, iodoacetoamide]
effect on enzyme activity [6]: decreased to certain extents | effect on enzyme activity [7]: decreased to certain extents | effect on enzyme activity [8]: decreased to certain extents

quantity of L-alanyl dipeptide produced from L-alanine methyl ester and test amino acid [1]: 1.02 mM
Compound: O=C(O)[C@@H]1CCCN1 [L-proline]
